In patent US20170209403A1, “METHOD FOR REGULATING ALDEHYDE DEHYDROGENASE 1” (National Cheng Kung University, priority 2016, published 2017):

Experiments:
Assay type in all cases: cell-based, human
[1] = test system: A2780 and CP70 ovarian cancer cells; assay: Sphere formation assay; conditions: for sphere formation efficiency: control and shALDH1 cells (A2780, CP70, CP70-vector, CP70-shALDH1), 1 μM Thiostrepton or 10 μM DAPT, 10 days
Description: FIGS. 1A-1F show ALDH1 regulates stemness and tumourigenic ability in ovarian cancer cells. […] A total of 1×10^3 A2780 (upper panel) and CP70 (lower panel) cells were seeded into a 96-well plate to evaluate the cells' sphere formation ability (scale bar=200 μm). DEAB was used to inhibit the reaction of ALDH1 and also served as a negative control. […] The β-actin was used as a protein loading control. The histogram represents the relative fold change of protein expression (right panel). […] A2780-ALDH1 (upper panel) and CP70-shALDH1 (lower panel) cells were seeded into 96-well plates to evaluate their sphere formation ability (scale bar=200 μm).
FIGS. 2A-2D show ALDH1 regulates stemness and tumourigenic ability through the FoxM1 and Notch1 signalling pathways. […] Representative images show spheres generated from single-cell cultures after 10 days. The lower panel depicts the relative sphere formation ratio (scale bar=200 μm). […] V: vector.
(§1) Standard sphere formation assays were performed according to Zhang et al. (Zhang, S. et al. Cancer Res., 68, 4311-4320.) with minor modification. The cells (1×10^3) were resuspended in serum-free DMEM/F12 medium supplemented with 5 μg/ml insulin (Sigma), 20 ng/ml human recombinant epidermal growth factor (EGF; Invitrogen, Life Technologies, Carlsbad, Calif.) and 10 ng/ml basic fibroblast growth factor (bFGF; Invitrogen) in ultra-low attachment plates (Corning Costar, Corning, N.Y.). Spheres that arose within 1-2 weeks were counted. Colony diameters >50 μm were counted as a single-positive colony. The middle field was chosen for counting of spheres, and two fields for each plate were counted under a dissecting microscope. For all sphere formation experiments, a minimum of eight wells was run for each condition. All data represent the mean ±SEM of three separate experiments and at least 24 different fields.
(§2) An Aldefluor® kit (StemCell Technologies) was used to assess ALDH activity in the ovarian cancer cell lines, as previously described (Saw, Y. T. et al. (2012) BMC Cancer, 12, 329.). In brief, 1×10^6 cells were incubated in Aldefluor® assay buffer containing a 1.5 μM ALDH substrate for 30 min at 37° C. Each sample was treated with 50 μM of DEAB, and used as a negative control. Prior to analysis, cells were stained with […] of propidium iodide to evaluate their viability. The fluorescence intensity of the stained cells was analysed using a FACSAria cell sorter Flow Cytometer (BD Biosciences). The reaction with DEAB was used to define the baseline for the assay. The ALDH activity of a sample was determined to be ‘high’ or ‘low’ based on the fluorescence intensity beyond or below the threshold defined by the reaction with DEAB. The cells having high or low ALDH activity are marked “-High” or “-Low” hereafter.

[2] = test system: ES2 cells (ES2-High, ES2-Low); assay: Sphere formation assay; conditions: for sphere formation: ES2-High cells, different concentrations of Thiostrepton or DAPT; for decrease of sphere formation: ES2-Low cells, Thiostrepton or DAPT
Description: (§3) Right panel: relative fold changes of ALDH1 and FoxM1 expression compared with controls. […] Sphere formation in ES2-High cells after treatment with different concentrations of Thiostrepton or DAPT, and the relative fold changes in expression are shown (scale bar=200 μm).
as §1, §2

[3] = test system: ALDH1, FoxM1, Notch1, Oct-4 and Nanog expression in A2780 and CP70 cells; assay: Western blotting of ALDH1, FoxM1, Notch1 and CSC markers; conditions: for ALDH1 expression / FoxM1 expression / Notch1 expression: A2780 and CP70 cells; for ALDH1 expression: 1 μM Thiostrepton or 10 μM DAPT; for FoxM1 expression / Notch1 expression: 1 μM Thiostrepton, 10 μM DAPT, or DEAB
[4] = test system: ALDH1, FoxM1 and Notch-1 expression in ES2 cells; assay: Western blotting of ALDH1, FoxM1 and Notch1; conditions: ES2-High cells; for ALDH1 expression: Thiostrepton or DAPT; for FoxM1 expression / Notch1 expression: different concentrations of Thiostrepton or DAPT
Description: as §3
The cells were lysed and then harvested using a cell lifter (Corning Costar). Protein concentrations were determined by Bio-Rad protein assay (Bio-Rad, Hercules, Calif.). Proteins were then separated by 10% sodium dodecyl sulphate-polyacrylamide gel electrophoresis and transferred to polyvinylidene difluoride membranes. Western blotting was performed using the following antibodies at the indicated dilutions: anti-ALDH1 (1:1000; BD Biosciences), anti-Oct4 (1:1000; BD Biosciences), anti-Nanog (1:1000; BD Biosciences), anti-Notch1 (1:1000; Abcam, Cambridge, UK), anti-FoxM1 (1:1000; Santa Cruz Biotechnology, Santa Cruz, Calif.) and anti-beta actin (1:5000; Sigma).

[5] = test system: A2780 and CP70 ovarian cancer cells; assay: MTT cytotoxicity assay (proliferation, doubling time); set-up: toxicity: dose or concentration left out as unconfirmed; conditions: for cell proliferation: A2780 and CP70 derived cells, inhibitor treatment
Description: The cell lines were cultured in a humidified incubator containing 95% air and 5% CO2 at 37° C. in 96-well flat-bottomed microtiter plates. After 72 h of incubation, the in vitro cytotoxic effects of treatments were determined by MTT assay (at 570 nm).

[6] = test system: ALDH1, FoxM1 and Notch-1 expression in ES2 cells; assay: Western blotting of ALDH1, FoxM1 and Notch1; conditions: ES2-Low cells; Thiostrepton or DAPT
ALDH1 = assay: Aldefluor assay of ALDH1 enzyme activity / ALDH1-High cell fraction; conditions: A2780-Low and CP70-Low cells; ATRA (10 μM) or paclitaxel (60 ng/ml) for 4 days
Description: as §2

Row | SMILES | sphere formation efficiency [1] | sphere formation [2] | decrease of sphere formation [2] | ALDH1 expression ([3]; western blotting) | FoxM1 expression ([3]; western blotting) | Notch1 expression ([3]; western blotting) | ALDH1 expression [4] | FoxM1 expression [4] | Notch1 expression [4] | toxicity ([5]; A2780 and CP70-shALDH1 cells, effect not significant) | downregulation of FoxM1 and Notch1 expression [6] | proportion of ALDH1-High cells (ALDH1) | FoxM1 expression in FoxM1-overexpressing cells ([3]; A2780-FoxM1 cells, immunoblot, DAPT) | cell proliferation [5] | sphere formation ([1]; ALDH1-High A2780 or CP70 cells, DEAB treatment) | expression of CSC marker proteins FoxM1, Notch1, Oct 4 and Nanog ([3]; ALDH1-High cells, DEAB treatment, western blotting)
1 | C=C(NC(=O)C(=C)NC(=O)c1csc(C2=N[C@@H]3c4csc(n4)[C@H]4NC(=O)c5csc(n5)[C@H]([C@](C)(O)[C@@H](C)O)NC(=O)[C@H]5CSC(=N5)/C(=C/C)NC(=O)[C@H]([C@@H](C)O)NC(=O)c5csc(n5)[C@]3(CC2)NC(=O)[C@H](C)NC(=O)C(=C)NC(=O)[C@H](C)NC(=O)[C@H]([C@@H](C)CC)N[C@@H]2C=Cc3c([C@H](C)O)cc(nc3[C@H]2O)C(=O)O[C@@H]4C)n1)C(N)=O [Thiostrepton, thiostrepton] | decreased sphere formation efficiency | decreased sphere formation in ES2-High cells in a dose-dependent manner | not observed | did not affect ALDH1 expression | reduced the expression not only of FoxM1 but also of Notch1 | reduced the expression not only of FoxM1 but also of Notch1 | did not affect ALDH1 expression | downregulated the expression levels of both FoxM1 and Notch1 in ES2-High cells in a dose-dependent manner | downregulated the expression levels of both FoxM1 and Notch1 in ES2-High cells in a dose-dependent manner | slight toxicity | not observed |  |  |  |  | 
2 | CC(=O)O[C@H]1C(=O)[C@@]2(C)[C@H]([C@H](OC(=O)c3ccccc3)[C@]3(O)C[C@H](OC(=O)[C@H](O)[C@@H](NC(=O)c4ccccc4)c4ccccc4)C(C)=C1C3(C)C)[C@]1(OC(C)=O)CO[C@@H]1C[C@@H]2O [paclitaxel] |  |  |  |  |  |  |  |  |  |  |  | increased proportion of ALDH1-High cells |  |  |  | 
3 | C[C@H](NC(=O)Cc1cc(F)cc(F)c1)C(=O)N[C@H](C(=O)OC(C)(C)C)c1ccccc1 [DAPT, N-[2S-(3,5-difluorophenyl)acetyl]-L-alanyl-2-phenyl-1,1-dimethylethyl ester-glycine] | decreased sphere formation efficiency | decreased sphere formation in ES2-High cells in a dose-dependent manner | not observed | did not affect ALDH1 expression | decreased Notch1 expression as well as FoxM1 expression, but to a lesser extent | decreased Notch1 expression | did not affect ALDH1 expression | downregulated the expression levels of both FoxM1 and Notch1 in ES2-High cells in a dose-dependent manner | downregulated the expression levels of both FoxM1 and Notch1 in ES2-High cells in a dose-dependent manner |  | not observed |  | failed to attenuate FoxM1 expression | did not affect proliferation |  | 
4 | CCN(CC)c1ccc(C=O)cc1 [DEAB, diethylaminobenzaldehyde] |  |  |  |  | downregulated | downregulated |  |  |  |  |  |  |  | did not affect cell proliferation | suppressed sphere formation | inhibited
